Experimental data reported in BindingDB's records for patent US20240051936 (Monte Rosa Therapeutics, 2024).

Molecular target: Protein cereblon (Homo sapiens, UniProt Q96SW2)
Assay: Fluorescent Polarization Assay
Description: Compound activity was monitored in a fluorescence polarization (FP) homogeneous assay using 1-[5-({2-[2-(2-{[2-(2,6-dioxopiperidin-3-yl)-1,3-dioxo-2,3-dihydro-1H-isoindol-4-yl]oxy}acetamido)ethoxy]ethyl}carbamoyl)pentyl]-3,3-dimethyl-2-[(1E,3E)-5-[(2E)-1,3,3-trimethyl-5-sulfo-2,3-dihydro-1H-indol-2-ylidene]penta-1,3-dien-1-yl]-3H-indol-1-ium-5-sulfonate as a fluorescent probe. Unless otherwise stated, all reagents were purchased from Sigma Aldrich. Enzymatic reactions were conducted in Perkin-Elmer Black 384 well ProxiPlate Plus (catalogue no. 6008269) in 10 sL total volume. Full length wild-type cereblon CRBN (80.0 nM, 10 sL) was incubated in assay buffer containing 20 mM HEPES (pH 8.0), […], 0.5 mM TCEP and 0.05% Tween 20 in the presence or absence of compound (300 nL). Inhibitors were stored as 10 mM DMSO stocks in an inert environment (low humidity, dark, low oxygen, room temperature) using the Storage Pod System. Compounds and DMSO were dispensed using the Echo E5XX (Labcyte Inc. USA) to give concentrations from 300 to 0.937 or 3000 to 9.3 nM in a 12 data point curve. […] Following incubation at room temperature for 30 min, the assay was initiated by dispensing the probe to a final concentration of 5 nM (2.5 nL of a 20 μM stock) using the Echo E5XX. FP was measured after a period of 12 hours using a Pherastar plate reader (BMG Labtech, Germany) exciting at 590 nm and measuring the amount of parallel and perpendicular light at 675 nm. The FP signal was subsequently normalized to the no-compound control (i.e., DMSO). Analysis and IC50 values were derived using Dotmatics (Dotmatics UK) software.

Sequence of Protein cereblon (Q96SW2 whole entry): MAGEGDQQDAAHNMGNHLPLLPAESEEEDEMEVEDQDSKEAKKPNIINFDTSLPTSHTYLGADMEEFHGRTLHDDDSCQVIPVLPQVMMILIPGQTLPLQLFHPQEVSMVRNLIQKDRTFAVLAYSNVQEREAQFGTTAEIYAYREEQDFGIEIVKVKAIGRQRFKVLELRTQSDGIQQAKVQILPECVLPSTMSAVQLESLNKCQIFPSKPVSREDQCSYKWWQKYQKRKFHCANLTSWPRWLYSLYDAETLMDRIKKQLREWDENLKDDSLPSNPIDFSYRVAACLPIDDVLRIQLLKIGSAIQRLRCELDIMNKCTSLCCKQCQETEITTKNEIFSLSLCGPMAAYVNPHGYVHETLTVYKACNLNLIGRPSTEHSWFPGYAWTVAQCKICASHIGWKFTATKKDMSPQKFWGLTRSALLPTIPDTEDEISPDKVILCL

IC50	Structure (SMILES)
> 1900 nM	O=C1CCC(N2Cc3c(F)cc(COC(=O)Nc4ccc(C5CCC5)cc4)cc3C2=O)C(=O)N1 (centres undefined) [US20240051936, Compound 22]
> 1900 nM	O=C1CCC(N2Cc3c(F)cc(COC(=O)Nc4cc(F)c(-c5ccccc5)c(F)c4)cc3C2=O)C(=O)N1 (centres undefined) [US20240051936, Compound 30]
> 1900 nM	O=C1CCC(N2Cc3c(F)cc(COC(=O)Nc4ccc(F)c(Cl)c4)cc3C2=O)C(=O)N1 (centres undefined) [US20240051936, Compound 32]

The next lines start with the compound.

Structure (SMILES)	IC50
O=C1CCC(N2Cc3c(F)cc(COC(=O)Nc4cc(F)c(F)c(Cl)c4)cc3C2=O)C(=O)N1 (centres undefined) [US20240051936, Compound 61]	> 1900 nM
CC(C)(C)c1ccc(NC(=O)OCc2cc(F)c3c(c2)C(=O)N(C2CCC(=O)NC2=O)C3)cc1 (centres undefined) [US20240051936, Compound 10]	> 1900 nM
O=C1CCC(N2Cc3c(F)cc(COC(=O)Nc4cc(F)cc(Cl)c4)cc3C2=O)C(=O)N1 (centres undefined) [US20240051936, Compound 33]	> 1900 nM
O=C1CCC(N2Cc3c(F)cc(COC(=O)Nc4ccc(-c5ccccc5F)c(F)c4)cc3C2=O)C(=O)N1 (centres undefined) [US20240051936, Compound 29]	> 1900 nM
O=C1CCC(N2Cc3c(F)cc(COC(=O)Nc4ccc(F)c(OC(F)(F)F)c4)cc3C2=O)C(=O)N1 (centres undefined) [US20240051936, Compound 14]	> 1900 nM
COc1c(COC(=O)Nc2ccc(C)c(Cl)c2)ccc2c1C(=O)N(C1CCC(=O)NC1=O)C2 (centres undefined) [US20240051936, Compound 70]	> 1900 nM
